From ChEMBL document CHEMBL1201862, “PubChem BioAssay data set” (2004)
Blank lines part the entries; values can stand above or below the compound they belong to. Activity calls are given as the source filed them.

Tests used:
Cytochrome P450 2D6 = Cytochrome P450 2D6 (Homo sapiens, UniProt P10635); assay: qHTS Assay for Inhibitors and Substrates of Cytochrome P450 2D6. [Related pubchem assays: 410 ]; format: ADME; conditions: read-out: Potency
[1] = target: T1, Alkaline phosphatase, tissue-nonspecific isozyme (Homo sapiens, UniProt P05186)
T1 sequence (P05186 whole entry): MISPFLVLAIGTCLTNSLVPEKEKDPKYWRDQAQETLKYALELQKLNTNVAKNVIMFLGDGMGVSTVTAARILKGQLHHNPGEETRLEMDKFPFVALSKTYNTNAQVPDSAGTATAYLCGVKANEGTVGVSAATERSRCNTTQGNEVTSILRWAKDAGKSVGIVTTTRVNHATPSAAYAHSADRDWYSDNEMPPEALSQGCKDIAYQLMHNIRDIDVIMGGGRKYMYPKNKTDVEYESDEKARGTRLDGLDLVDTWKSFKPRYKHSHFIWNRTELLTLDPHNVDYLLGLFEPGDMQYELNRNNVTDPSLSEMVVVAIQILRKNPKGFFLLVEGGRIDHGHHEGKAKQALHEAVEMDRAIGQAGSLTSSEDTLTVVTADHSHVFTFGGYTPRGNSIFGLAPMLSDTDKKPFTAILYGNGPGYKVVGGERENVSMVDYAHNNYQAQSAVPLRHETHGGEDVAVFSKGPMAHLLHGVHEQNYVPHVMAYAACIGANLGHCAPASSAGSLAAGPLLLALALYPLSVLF

[2] = HIV-1 Env-mediated cell fusion inhibitors, dose response, CCR5-tropic Env (AID 2279); format: functional
[3] = target: Peroxisome proliferator-activated receptor gamma/Nuclear receptor coactivator 2 (Homo sapiens, UniProt P37231); format: functional;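 further: agonist potency for raising coactivator recruitment to the receptor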
[4] = target: Peroxisome proliferator-activated receptor gamma/Nuclear receptor coactivator 1 (Homo sapiens, UniProt P37231); format: functional;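 further: agonist potency as compounds enhance coactivator SRC-1 recruitment to PPARgamma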
[5] = target: Peroxisome proliferator-activated receptor gamma/Nuclear receptor coactivator 3 (Homo sapiens, UniProt P37231); format: functional;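 further: agonist potency for raising coactivator recruitment to the receptor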
Leucine aminopeptidase = target: T2, Leucine aminopeptidase (Plasmodium falciparum 3D7, UniProt Q8IL11); assay: P. falciparum M17LAP inhibitors, primary screen, biochemical, fluorogenic H-Leu-NHMec substrate, 1536-well (AID 1619); format: functional
T2 sequence (Q8IL11 whole entry): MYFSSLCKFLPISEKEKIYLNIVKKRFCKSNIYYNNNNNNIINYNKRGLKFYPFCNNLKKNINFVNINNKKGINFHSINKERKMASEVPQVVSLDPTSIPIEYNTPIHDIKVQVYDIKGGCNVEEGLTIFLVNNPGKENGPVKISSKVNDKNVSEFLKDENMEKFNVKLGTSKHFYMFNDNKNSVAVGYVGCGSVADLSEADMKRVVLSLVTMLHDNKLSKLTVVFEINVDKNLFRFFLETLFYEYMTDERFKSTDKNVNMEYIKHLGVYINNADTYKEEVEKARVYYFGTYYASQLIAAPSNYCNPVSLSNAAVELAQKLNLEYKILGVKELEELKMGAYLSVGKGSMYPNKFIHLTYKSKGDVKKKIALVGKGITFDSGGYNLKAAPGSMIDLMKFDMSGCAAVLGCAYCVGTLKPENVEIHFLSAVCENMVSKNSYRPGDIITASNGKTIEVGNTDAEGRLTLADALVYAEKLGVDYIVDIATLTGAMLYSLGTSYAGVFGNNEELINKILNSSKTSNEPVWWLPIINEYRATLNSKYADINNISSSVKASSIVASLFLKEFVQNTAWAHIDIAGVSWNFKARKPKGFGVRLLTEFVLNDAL

[6] = enhancers of respiration in Yfh1-depleted yeast, dose response, Friedreich's ataxia, plus single-dose screen (AID 1465); format: functional;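 further: yeast depleted of Yfh1p frataxin homolog grown on glycerol needing respiration; WST-1 tetrazolium dye reduction as measure of cellular dehydrogenase metabolic activity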
[7] = target: T3, Potassium voltage-gated channel subfamily KQT member 2 (Rattus norvegicus, UniProt O88943); assay: (§1) Mode of action assay - current amplitude concentration response for derivatives of ZTZ240, a potentiator of KCNQ2 potassium channels. [Related pubchem assays: 2258 (Summary assay for the KCNQ2 potentiators.), 2239 (Primary HTS assay for KCNQ2 potentiators with 305606 compounds tested, and 1644 are found to be active.)]; format: functional
[8] = target: T3, Potassium voltage-gated channel subfamily KQT member 2; assay: as §1, with “action” for “action assay”, “deactivation constant” for “current amplitude”, “ztz240,” for “derivatives of ZTZ240,”; format: functional
[9] = target: T4, Neuropeptide Y receptor type 1 (Homo sapiens, UniProt P25929); format: functional;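 on IC50: HEK293 cells with a CNG channel challenged with NPY then isoproterenol; potency as antagonist that reverses NPY suppression of cAMP signal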
[10] = target: T5, Neuropeptide Y receptor type 2 (Homo sapiens, UniProt P49146); format: functional, cell-based;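 on IC50: HEK293 cells expressing the receptor and a CNG channel; stimulus was NPY near EC95 followed by isoproterenol to raise cAMP; antagonist potency measured as restoring cAMP signal that NPY suppresses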
HEK293 = assay: Fluorescence-based counterscreen for potentiators or agonists of NPY-Y2: cell-based high-throughput dose response assay to identify inhibitors of cyclic nucleotide gated ion channel (CNGC) activity. In this assay, the parental HEK293 cell line transfected with a cyclic-nucleotide gated ion channel (CNGC)-based cAMP sensor is used to measure inhibition of isoproterenol-induced CNGC activity by test compound.; format: functional; conditions: Homo sapiens;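 further: stimulus is 1 µM isoproterenol at EC100 plus PDE inhibitor Ro 20-1724 at 25 µM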
[11] = target: T5, Neuropeptide Y receptor type 2; assay: Fluorescence-based cell-based high-throughput dose response assay for agonists of NPY-Y2. [Related pubchem assays: 1703 (Screening assay (CNGC inhibitors).), 1359 (Screening assay (NPY-Y2 potentiators or agonists).), 1304 (Screening assay (NPY-Y1 potentiators or agonists).), 1710 (Screening assay (NPY-Y2 agonists).), 1791 (Summary AID.)]; format: functional
[12] = target: T4, Neuropeptide Y receptor type 1; assay: Fluorescence-based counterscreen for agonists of NPY-Y2: cell-based high-throughput dose response assay for agonists of NPY-Y1.; format: functional
Streptococcus = assay: Luminescence Microorganism-Based Dose Response Follow up to Identify Compounds Cytotoxic to Streptococcus. [Related pubchem assays: 1677 (Project Summary), 1915, 1914, 1902 (Retest at Dose), 1900 (Counter Screen), 1662 (Primary HTS)]; format: functional, organism-based
[13] = target: T6, Heat shock factor protein 1 (Mus musculus, UniProt P38532); assay: inhibition of MG132-induced HSE-luciferase signal, confirmation, cell-based, NIH3T3, luminescence, dose retest (AID 2382); format: functional;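 further: NIH3T3 fibroblasts with HSF1-driven luciferase reporter stressed by proteasome inhibitor MG132; luminescence from HSF1-driven luciferase expression after 8 hours of MG132 stress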
T6 sequence (P38532 whole entry): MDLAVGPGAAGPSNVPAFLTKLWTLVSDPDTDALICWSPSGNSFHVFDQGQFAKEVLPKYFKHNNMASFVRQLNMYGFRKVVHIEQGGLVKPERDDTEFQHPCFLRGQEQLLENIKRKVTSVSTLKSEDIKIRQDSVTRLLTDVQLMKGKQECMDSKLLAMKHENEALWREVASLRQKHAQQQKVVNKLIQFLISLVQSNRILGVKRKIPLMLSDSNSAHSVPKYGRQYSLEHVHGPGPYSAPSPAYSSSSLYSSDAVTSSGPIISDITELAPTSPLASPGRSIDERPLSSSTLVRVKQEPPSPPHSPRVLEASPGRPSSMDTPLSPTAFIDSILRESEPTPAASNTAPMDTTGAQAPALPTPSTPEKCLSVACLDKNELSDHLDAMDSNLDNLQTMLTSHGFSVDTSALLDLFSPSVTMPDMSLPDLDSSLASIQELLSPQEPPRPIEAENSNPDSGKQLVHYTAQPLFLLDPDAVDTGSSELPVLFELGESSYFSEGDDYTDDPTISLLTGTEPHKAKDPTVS

[14] = target: T7, Sphingosine 1-phosphate receptor 4 (Homo sapiens, UniProt O95977); assay: Fluorescence dose response cell-based high throughput screening assay for antagonists of the Sphingosine 1-Phosphate Receptor 4 (S1P4). [Related pubchem assays: 1524 (Confirmation in triplicates.), 1510 (Primary screen.)]; format: functional
T7 sequence (O95977 whole entry): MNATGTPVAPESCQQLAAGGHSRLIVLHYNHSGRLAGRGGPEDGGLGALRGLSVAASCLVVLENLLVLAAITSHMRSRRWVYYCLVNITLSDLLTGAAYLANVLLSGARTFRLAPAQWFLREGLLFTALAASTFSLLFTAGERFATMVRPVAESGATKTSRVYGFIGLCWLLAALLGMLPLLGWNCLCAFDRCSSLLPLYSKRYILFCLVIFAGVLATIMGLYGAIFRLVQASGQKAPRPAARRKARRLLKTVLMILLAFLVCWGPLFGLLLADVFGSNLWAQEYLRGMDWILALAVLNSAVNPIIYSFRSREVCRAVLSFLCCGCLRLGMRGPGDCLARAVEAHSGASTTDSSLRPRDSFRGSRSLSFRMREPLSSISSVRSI

[15] = target: Sphingosine 1-phosphate receptor 1 (Homo sapiens, UniProt P21453); format: functional;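 further: Tango beta-arrestin reporter U2OS cells stimulated with S1P near its EC80; inhibitor potency meaning antagonism of receptor activation by the natural agonist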
[16] = target: T8, Microphthalmia-associated transcription factor (Homo sapiens, UniProt O75030); assay: TRPM1 promoter luciferase signal decrease, dose response, MITF inhibitor project, cell-based, SK-MEL-5, cherry-picked, set 3 (AID 493073); format: functional
T8 sequence (O75030 whole entry): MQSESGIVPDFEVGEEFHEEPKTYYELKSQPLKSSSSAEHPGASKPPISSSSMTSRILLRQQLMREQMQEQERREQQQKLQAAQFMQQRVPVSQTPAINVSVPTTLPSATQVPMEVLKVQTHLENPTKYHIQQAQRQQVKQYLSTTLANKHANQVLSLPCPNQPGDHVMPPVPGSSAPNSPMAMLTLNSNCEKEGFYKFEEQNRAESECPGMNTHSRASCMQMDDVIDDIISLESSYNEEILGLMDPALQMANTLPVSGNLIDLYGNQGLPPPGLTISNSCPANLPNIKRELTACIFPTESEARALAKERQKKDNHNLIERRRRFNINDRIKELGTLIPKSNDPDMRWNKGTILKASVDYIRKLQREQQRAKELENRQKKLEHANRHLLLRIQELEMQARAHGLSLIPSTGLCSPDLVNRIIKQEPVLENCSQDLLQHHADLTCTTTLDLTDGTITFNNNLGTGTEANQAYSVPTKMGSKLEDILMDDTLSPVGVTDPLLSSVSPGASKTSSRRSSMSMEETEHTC

A-375 = assay: A375 melanoma cell viability reduction, dose response, counter-screen for MITF modulator project, cherry-pick samples, set 2 (AID 540335); format: functional, cell-based; conditions: Homo sapiens
[17] = Fluorescence-based cell-based high throughput dose response assay for inhibitors of the interaction of nucleotide-binding oligomerization domain containing 2 (NOD2) and the receptor-interacting serine-threonine kinase 2 (RIPK2).; format: functional, Homo sapiens; conditions: Homo sapiens
Paired box protein Pax-8 = Paired box protein Pax-8 (Homo sapiens, UniProt Q06710); assay: inhibitors of PAX8-driven TPO luciferase reporter, dose response, RMG-I cells, cherry-pick (AID 687027); format: functional, cell-based;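 further: luciferase reporter driven by Pax8 target thyroperoxidase promoter measured by SteadyGlo luminescence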
[18] = A549 cell cytotoxicity, dose response, cytotoxicity control, plate reader, cherry-pick, antagonist series (AID 743412); format: functional, cell-based
[19] = HepG2 cell cytotoxicity, dose response, cytotoxicity control, plate reader, cherry-pick, antagonist series (AID 743416); format: functional, cell-based
[20] = LGR2 antagonists, dose response, cell-based, HEK293, CRE-luciferase reporter, cherry pick, set 2 (AID 743343); format: functional;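 further: transfected cells were stimulated with diluted bursicon conditioned medium after compound addition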
[21] = non-specific cell cytotoxicity, dose response, cytotoxicity control for PAX8 inhibitor project, plate reader, dry powder samples (AID 743021); format: functional, cell-based
[22] = MC4R antagonists, dose response, counter-screen for LGR2 antagonist project, cell-based, plate reader, cherry pick (AID 743444); format: functional;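 further: transfected HEK 293 cells stimulated with alpha-MSH peptide; potency of inhibitors of the alpha-MSH evoked signal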
[23] = HEK293 cell cytotoxicity, dose response, cytotoxicity control, plate reader, cherry-picked samples (AID 743446); format: functional, cell-based

T4 sequence (P25929 whole entry): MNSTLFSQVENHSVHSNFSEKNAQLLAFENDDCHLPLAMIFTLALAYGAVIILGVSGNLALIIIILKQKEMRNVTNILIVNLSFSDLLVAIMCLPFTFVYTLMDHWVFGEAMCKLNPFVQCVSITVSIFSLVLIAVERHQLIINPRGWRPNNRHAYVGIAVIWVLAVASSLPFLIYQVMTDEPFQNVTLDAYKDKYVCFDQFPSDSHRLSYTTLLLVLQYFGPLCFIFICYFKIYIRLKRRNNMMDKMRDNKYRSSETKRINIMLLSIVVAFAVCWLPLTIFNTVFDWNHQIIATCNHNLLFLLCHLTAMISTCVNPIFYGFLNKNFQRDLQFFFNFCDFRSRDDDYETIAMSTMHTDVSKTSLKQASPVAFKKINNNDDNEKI
T5 sequence (P49146 whole entry): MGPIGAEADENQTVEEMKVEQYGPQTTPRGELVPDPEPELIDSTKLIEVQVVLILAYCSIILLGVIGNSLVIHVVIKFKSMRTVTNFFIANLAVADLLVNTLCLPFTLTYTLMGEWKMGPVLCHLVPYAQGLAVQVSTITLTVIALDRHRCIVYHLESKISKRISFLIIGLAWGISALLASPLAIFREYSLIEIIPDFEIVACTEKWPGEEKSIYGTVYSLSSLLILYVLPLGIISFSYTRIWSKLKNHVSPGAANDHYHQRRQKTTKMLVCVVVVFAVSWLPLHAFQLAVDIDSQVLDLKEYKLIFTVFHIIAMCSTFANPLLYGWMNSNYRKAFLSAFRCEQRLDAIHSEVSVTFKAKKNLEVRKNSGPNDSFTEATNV
T3 sequence (O88943 whole entry): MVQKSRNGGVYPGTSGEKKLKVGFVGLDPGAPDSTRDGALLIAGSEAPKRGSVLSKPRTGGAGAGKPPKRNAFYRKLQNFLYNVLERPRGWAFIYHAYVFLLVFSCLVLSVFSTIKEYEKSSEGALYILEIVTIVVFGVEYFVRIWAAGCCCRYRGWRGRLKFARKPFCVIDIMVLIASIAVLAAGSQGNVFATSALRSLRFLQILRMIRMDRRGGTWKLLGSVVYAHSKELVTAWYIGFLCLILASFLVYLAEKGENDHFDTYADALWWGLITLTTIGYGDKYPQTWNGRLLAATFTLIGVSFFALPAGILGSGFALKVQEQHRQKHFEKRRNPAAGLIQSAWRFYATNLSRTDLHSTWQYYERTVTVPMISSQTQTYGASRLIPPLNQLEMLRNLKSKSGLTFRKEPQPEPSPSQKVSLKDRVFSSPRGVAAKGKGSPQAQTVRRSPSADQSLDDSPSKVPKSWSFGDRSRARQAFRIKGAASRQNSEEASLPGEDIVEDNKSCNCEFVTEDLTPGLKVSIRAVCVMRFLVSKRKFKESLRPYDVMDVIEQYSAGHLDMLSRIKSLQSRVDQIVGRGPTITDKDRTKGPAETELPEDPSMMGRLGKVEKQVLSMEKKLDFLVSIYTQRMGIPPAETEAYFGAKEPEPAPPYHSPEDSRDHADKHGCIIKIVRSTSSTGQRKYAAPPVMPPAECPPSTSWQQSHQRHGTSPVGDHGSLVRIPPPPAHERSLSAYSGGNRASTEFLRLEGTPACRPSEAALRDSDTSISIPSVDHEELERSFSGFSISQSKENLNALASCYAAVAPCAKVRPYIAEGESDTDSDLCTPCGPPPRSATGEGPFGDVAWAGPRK
Chain of Peroxisome proliferator-activated receptor gamma/Nuclear receptor coactivator 1 (P37231 whole entry): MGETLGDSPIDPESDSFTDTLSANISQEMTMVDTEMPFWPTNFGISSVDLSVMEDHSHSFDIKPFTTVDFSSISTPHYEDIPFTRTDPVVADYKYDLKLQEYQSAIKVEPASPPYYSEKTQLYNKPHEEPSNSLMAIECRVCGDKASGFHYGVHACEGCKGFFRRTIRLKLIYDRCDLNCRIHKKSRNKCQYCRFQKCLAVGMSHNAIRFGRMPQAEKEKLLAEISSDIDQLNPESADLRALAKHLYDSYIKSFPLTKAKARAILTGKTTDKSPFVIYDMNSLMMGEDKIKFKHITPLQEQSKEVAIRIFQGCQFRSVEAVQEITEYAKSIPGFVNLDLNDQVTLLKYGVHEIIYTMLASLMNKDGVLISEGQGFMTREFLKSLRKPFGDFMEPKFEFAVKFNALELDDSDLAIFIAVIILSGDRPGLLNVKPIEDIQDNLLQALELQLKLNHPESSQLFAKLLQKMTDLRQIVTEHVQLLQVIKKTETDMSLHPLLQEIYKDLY
Chain of Peroxisome proliferator-activated receptor gamma/Nuclear receptor coactivator 1 (Q15788 whole entry, further chain): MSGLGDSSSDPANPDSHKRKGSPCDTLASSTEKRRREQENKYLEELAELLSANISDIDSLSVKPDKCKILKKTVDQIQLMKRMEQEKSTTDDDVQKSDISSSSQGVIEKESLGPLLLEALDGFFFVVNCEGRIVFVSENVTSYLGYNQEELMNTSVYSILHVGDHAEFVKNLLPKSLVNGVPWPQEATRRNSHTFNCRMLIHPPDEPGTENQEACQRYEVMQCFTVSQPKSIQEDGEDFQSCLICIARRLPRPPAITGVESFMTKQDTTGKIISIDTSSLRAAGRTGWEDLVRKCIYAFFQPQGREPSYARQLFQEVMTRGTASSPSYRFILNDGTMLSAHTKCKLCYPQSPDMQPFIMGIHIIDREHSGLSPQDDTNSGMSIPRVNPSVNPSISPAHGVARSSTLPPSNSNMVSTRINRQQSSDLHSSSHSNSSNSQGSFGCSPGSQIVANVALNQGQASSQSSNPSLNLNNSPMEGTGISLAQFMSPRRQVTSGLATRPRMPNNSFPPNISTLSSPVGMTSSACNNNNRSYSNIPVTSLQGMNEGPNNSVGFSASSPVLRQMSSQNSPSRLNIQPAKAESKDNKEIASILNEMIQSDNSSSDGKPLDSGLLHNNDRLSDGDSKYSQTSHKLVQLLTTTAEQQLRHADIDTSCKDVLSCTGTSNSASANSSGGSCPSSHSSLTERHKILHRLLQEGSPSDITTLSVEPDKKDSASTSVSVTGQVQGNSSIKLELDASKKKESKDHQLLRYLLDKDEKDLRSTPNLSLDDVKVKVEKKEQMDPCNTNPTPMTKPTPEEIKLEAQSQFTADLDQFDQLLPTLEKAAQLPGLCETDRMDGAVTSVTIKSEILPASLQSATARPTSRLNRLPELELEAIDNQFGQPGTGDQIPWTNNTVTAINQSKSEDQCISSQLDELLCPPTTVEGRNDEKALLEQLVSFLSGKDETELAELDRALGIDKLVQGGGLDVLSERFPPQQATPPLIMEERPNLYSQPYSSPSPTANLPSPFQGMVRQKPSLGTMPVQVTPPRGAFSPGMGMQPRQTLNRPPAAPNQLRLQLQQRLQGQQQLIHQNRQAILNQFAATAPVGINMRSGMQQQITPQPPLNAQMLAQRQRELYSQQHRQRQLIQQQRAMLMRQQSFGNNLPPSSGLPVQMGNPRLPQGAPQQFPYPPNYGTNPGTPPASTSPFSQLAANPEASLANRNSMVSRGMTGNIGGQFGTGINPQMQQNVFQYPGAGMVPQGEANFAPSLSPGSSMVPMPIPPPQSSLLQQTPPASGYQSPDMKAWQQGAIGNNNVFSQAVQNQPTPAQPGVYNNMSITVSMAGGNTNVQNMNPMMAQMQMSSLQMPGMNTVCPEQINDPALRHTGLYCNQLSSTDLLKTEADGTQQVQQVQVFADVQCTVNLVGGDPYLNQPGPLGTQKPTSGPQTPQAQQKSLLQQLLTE
Chain of Paired box protein Pax-8 (Q06710 whole entry): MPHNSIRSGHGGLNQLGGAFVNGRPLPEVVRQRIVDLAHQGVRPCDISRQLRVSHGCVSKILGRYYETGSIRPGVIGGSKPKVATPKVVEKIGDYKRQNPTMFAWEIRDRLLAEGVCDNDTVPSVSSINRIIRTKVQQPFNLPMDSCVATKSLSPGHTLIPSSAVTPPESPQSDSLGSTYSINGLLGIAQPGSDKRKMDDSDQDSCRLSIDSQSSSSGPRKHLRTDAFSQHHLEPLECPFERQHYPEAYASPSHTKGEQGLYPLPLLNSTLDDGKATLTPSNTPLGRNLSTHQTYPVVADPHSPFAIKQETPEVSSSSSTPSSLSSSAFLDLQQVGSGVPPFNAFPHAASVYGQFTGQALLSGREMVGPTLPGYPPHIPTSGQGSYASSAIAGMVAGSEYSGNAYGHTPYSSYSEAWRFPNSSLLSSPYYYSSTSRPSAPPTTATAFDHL
Chain of Sphingosine 1-phosphate receptor 1 (P21453 whole entry): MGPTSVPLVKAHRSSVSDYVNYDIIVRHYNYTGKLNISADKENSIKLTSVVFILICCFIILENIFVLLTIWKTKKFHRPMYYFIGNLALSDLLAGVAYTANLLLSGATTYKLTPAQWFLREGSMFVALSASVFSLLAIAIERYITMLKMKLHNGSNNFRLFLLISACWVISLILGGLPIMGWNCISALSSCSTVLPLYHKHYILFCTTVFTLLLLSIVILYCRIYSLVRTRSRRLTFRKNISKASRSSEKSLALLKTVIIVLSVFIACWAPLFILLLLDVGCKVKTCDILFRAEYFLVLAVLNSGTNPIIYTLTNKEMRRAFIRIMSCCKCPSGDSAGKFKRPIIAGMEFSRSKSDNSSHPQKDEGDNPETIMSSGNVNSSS
Chain of Cytochrome P450 2D6 (P10635 whole entry): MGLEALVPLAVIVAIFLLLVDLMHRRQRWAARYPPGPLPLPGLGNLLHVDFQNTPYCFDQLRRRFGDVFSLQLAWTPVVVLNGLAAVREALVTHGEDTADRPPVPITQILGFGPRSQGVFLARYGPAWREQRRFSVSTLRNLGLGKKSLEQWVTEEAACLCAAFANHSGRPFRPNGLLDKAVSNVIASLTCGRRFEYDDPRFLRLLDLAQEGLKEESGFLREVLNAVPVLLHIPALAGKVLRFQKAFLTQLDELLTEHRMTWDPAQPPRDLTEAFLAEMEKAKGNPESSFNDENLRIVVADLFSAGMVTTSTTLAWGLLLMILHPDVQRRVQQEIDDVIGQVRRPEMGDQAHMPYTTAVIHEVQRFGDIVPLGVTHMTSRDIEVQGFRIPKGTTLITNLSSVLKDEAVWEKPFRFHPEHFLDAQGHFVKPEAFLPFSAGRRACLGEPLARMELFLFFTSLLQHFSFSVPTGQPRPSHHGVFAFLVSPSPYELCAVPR

SMILES: O=C1/C(=C\c2ccc(O)c(O)c2)C(c2ccccc2)=NN1c1ccccc1
IC50 [2]: 27.1 µM (active)

SMILES: N#C/C(=C/c1ccc(N2CCOCC2)o1)C(=O)NC1CCCCC1
IC50 (Leucine aminopeptidase): 109 µM (active) | EC50 [6]: > 100 µM (active)

SMILES: O=C(N/N=C/c1ccc(OC(F)F)cc1)c1cccc(S(=O)(=O)N2CCOCC2)c1
EC50 (HEK293): > 35.4 µM (not active) | EC50 [11]: > 35.4 µM (not active) | EC50 [12]: > 35.4 µM (not active)

SMILES: Cc1ccc(C(=O)N2c3ccccc3Sc3ccccc32)cc1
EC50 (Streptococcus): > 500 µM (not active)

SMILES: O=c1c(Cl)c(Cl)cnn1-c1ccccc1
EC50 [13]: 5.45 µM (active) | IC50 [14]: 1.86 µM (active) | IC50 [15]: 8.71 µM (active) | AC50 [16]: 9.54 µM (active) | AC50 (A-375): 23.8 µM (active) | IC50 [17]: 49.7 µM (inactive) | AC50 (Paired box protein Pax-8): 6.1 µM (active) | AC50 [18]: 7.52 µM (active) | AC50 [19]: 14.4 µM (active) | AC50 [20]: 19 µM (active) | AC50 [21]: 25.8 µM (active) | AC50 [22]: 16.3 µM (active) | AC50 [23]: 4.49 µM (active)

Now from value to compound:

AC50 (Cytochrome P450 2D6): 6.31 µM (inconclusive)
SMILES: CC12C=C(/C=C/CCc3ccco3)C(C)(C1)C(CCc1ccco1)CC2=O (centres undefined)

EC50 [1]: > 100 µM (not active)
SMILES: Cc1ccc(C)n1-c1ccc(C(=O)NN)s1

EC50 [3]: > 79.4 µM (not active) | EC50 [4]: > 79.4 µM (not active) | EC50 [5]: > 79.4 µM (not active)
SMILES: CCOC(=O)c1c(C)[nH]c(C(=O)COC(=O)CNC(=O)C2CCCCC2)c1C

EC50 [7]: 1.46 µM (active) | EC50 [8]: 5.9 µM (active)
SMILES: O=C(Nc1ccc(Cl)nc1)c1ccc(F)cc1

IC50 [9]: 9.96 µM (active) | IC50 [10]: 10 µM (not active)
SMILES: Cc1ccc(NC(S)=NCc2ccc3c(c2)OCO3)cc1C
